From article PMC4912218, “Targeted metabolomics of Gammarus pulex following controlled exposures to selected pharmaceuticals in water” (The Science of the Total Environment, 2016)

System: Gammarus pulex
Assay: Targeted metabolite profiling (LC-HRMS) of G. pulex after exposure at NOAEL and LOAEL
Format: in vivo
Description: Approximately 100 specimens were introduced in a tank containing 1 L of AFW (control), 1 L of AFW spiked with C1 and 1 L of AFW with C2. At three different times (2, 6 and 24 h), 4 replicates of live G. pulex (a pool of 6–7 animals for each replicate) were collected, frozen on dry ice and then stored at − 80 °C before metabolite profiling was performed.
Quantification of pharmaceutical concentrations in G. pulex at the 24 h exposure interval was performed. Separate exposures were set up in triplicate in beakers containing 200 mL of exposure solution (AFW spiked with the respective C1 pharmaceutical dose) and 20 organisms. At 24 h, animals were immediately rinsed with ultra-pure water and then frozen at − 20 °C for 24 h. […] Prior to extraction, frozen G. pulex samples were lyophilised at − 50 °C under vacuum for 48 h and milled in an agate mortar to a fine powder. For each analysis, 20 mg of a lyophilised composite sample were transferred to 2 mL polypropylene tubes (Eppendorf®, Hamburg, Germany), for solid-liquid extraction (SLE). […] Then, samples were shaken for 25 min on a vibration plate (IKA® KS 260 basic) and centrifuged at 14,000 rpm for 25 min at 0 °C. Finally, the supernatant was transferred to a chromatographic vial by using a […] syringe filter (Whatman, GE Healthcare Life Sciences, Buckinghamshire, UK). All samples were stored at − 80 °C until LC-HRMS analysis.
Briefly, 50 mg of lyophilised G. pulex were extracted in 5 mL of acetonitrile and pre-concentrated on Oasis HLB SPE cartridges (6 mL, 200 mg sorbent). The extract was eluted, dried-down and reconstituted in starting LC mobile phase. […] Organic acids, nucleosides, nucleotides, sugars and AAs were measured using LC–HRMS. An Exactive™ mass spectrometer equipped with heated electrospray ionization (H-ESI) source was used (Thermo Fisher Scientific, Bremen, Germany). The system was equipped with a HTC PAL autosampler and a Surveyor MS Plus pump. A TSK Gel-Amide 80 column (2 × 250 mm, 5 μm) for analyte separation was purchased from Sigma Aldrich. Mobile phases were binary mixtures of acetonitrile (A) and 5 mM ammonium acetate (pH 5) in HPLC-grade water (B). […] The flow rate was set at 150 μL min^− 1 and the injection volume was 5 μL. […] Full scan acquisition over a mass range of 80–800 Da was performed at 70,000 full width at half maximum (FWHM) and spray voltage at 3.00 kV, capillary voltage at 30 V, skimmer voltage at 28 V and tube lens voltage at 130 V were used. A sheath gas flow rate of 45 arbitrary units (au), an auxiliary gas flow rate of 10 au and a capillary temperature at 300 °C were selected.
Here, pharmaceutical residue quantification in exposed G. pulex was performed by a 3-point matrix-matched calibration curve. […] The algal amino acid mixture-^13C,^15N (see Table 1) was used as internal standard (IS) for extraction and analytical control. L-ornithine hydrochloride, inosine, thymidine, taurine, 1.7-dimethylxanthine and (−)-riboflavin were quantified using either ^13C,^15N-proline or ^13C,^15N-tyrosine as the internal standard. The remaining 15 compounds were quantified using external calibration and the target compound itself was used as external standard. […] The method detection limit (MDL) was calculated following the same procedure, using spiked lyophilised G. pulex samples at a concentration of 1 μg g^− 1. Intra-assay variation was assessed using five consecutive injections of 5 ng μL^− 1 standard solution, and inter-assay variation was determined by measuring the same standard solution on four different days. […] Recovery studies were performed in triplicate, using lyophilised G. pulex samples spiked at 1 μg g^− 1 with the metabolites mixture and the algal amino acid mixture-^13C, ^15N.

Oc1cc(Cl)ccc1Oc1ccc(Cl)cc1Cl [Triclosan]
(-)-Riboflavin concentration in G. pulex (2h, C1= 0.1 mg/L): 2.6 ± 0.7 µg/g | ADP concentration in G. pulex (2h, C1= 0.1 mg/L): 28.6 ± 2 µg/g | Cytidine concentration in G. pulex (2h, C1= 0.1 mg/L): 34 ± 22 µg/g | Hypoxanthine concentration in G. pulex (2h, C1= 0.1 mg/L): 123 ± 4 µg/g | Inosine concentration in G. pulex (2h, C1= 0.1 mg/L): 14808 ± 1341 µg/g | L-2-amino-n-butyric concentration in G. pulex (2h, C1= 0.1 mg/L): 15.1 ± 3 µg/g | L-(-)-Proline concentration in G. pulex (2h, C1= 0.1 mg/L): 499 ± 11 µg/g | L-Alanine concentration in G. pulex (2h, C1= 0.1 mg/L): 999 ± 2 µg/g | L-Citrulline concentration in G. pulex (2h, C1= 0.1 mg/L): 9.7 ± 0.4 µg/g | L-Isoleucine concentration in G. pulex (2h, C1= 0.1 mg/L): 2067 ± 110 µg/g | L-Leucine concentration in G. pulex (2h, C1= 0.1 mg/L): 443 ± 1 µg/g | L-Methionine concentration in G. pulex (2h, C1= 0.1 mg/L): 5.4 ± 0.6 µg/g | L-Phenylalanine concentration in G. pulex (2h, C1= 0.1 mg/L): 340 ± 28 µg/g | L-Serine concentration in G. pulex (2h, C1= 0.1 mg/L): 158 ± 7 µg/g | L-Threonine concentration in G. pulex (2h, C1= 0.1 mg/L): 740 ± 6 µg/g | L-Tryptophan concentration in G. pulex (2h, C1= 0.1 mg/L): 74 ± 20 µg/g | L-Tyrosine concentration in G. pulex (2h, C1= 0.1 mg/L): 247 ± 8 µg/g | L-Valine concentration in G. pulex (2h, C1= 0.1 mg/L): 500 ± 1 µg/g | L-aspartic acid concentration in G. pulex (2h, C1= 0.1 mg/L): 62.6 ± 3 µg/g | NADH concentration in G. pulex (2h, C1= 0.1 mg/L): 7.11 ± 0.1 µg/g | Taurine concentration in G. pulex (2h, C1= 0.1 mg/L): 7300 ± 168 µg/g | Thymidine concentration in G. pulex (2h, C1= 0.1 mg/L): 2918 ± 603 µg/g | Trehalose concentration in G. pulex (2h, C1= 0.1 mg/L): 197 ± 1 µg/g | Uridine concentration in G. pulex (2h, C1= 0.1 mg/L): 699 ± 21 µg/g | (-)-Riboflavin concentration in G. pulex (2h, C2= 0.3 mg/L): 2.4 ± 0.5 µg/g | ADP concentration in G. pulex (2h, C2= 0.3 mg/L): 30.5 ± 0.2 µg/g | Cytidine concentration in G. pulex (2h, C2= 0.3 mg/L): 15 ± 6 µg/g | Hypoxanthine concentration in G. pulex (2h, C2= 0.3 mg/L): 74 ± 22 µg/g | Inosine concentration in G. pulex (2h, C2= 0.3 mg/L): 20640 ± 179 µg/g | L-2-amino-n-butyric concentration in G. pulex (2h, C2= 0.3 mg/L): 17.0 ± 2 µg/g | L-(-)-Proline concentration in G. pulex (2h, C2= 0.3 mg/L): 313 ± 1 µg/g | L-Alanine concentration in G. pulex (2h, C2= 0.3 mg/L): 827 ± 10 µg/g | L-Citrulline concentration in G. pulex (2h, C2= 0.3 mg/L): 14.6 ± 0.4 µg/g | L-Isoleucine concentration in G. pulex (2h, C2= 0.3 mg/L): 1140 ± 38 µg/g | L-Leucine concentration in G. pulex (2h, C2= 0.3 mg/L): 361 ± 17 µg/g | L-Methionine concentration in G. pulex (2h, C2= 0.3 mg/L): 3.8 ± 0.6 µg/g | L-Phenylalanine concentration in G. pulex (2h, C2= 0.3 mg/L): 200 ± 15 µg/g | L-Serine concentration in G. pulex (2h, C2= 0.3 mg/L): 158 ± 7 µg/g | L-Threonine concentration in G. pulex (2h, C2= 0.3 mg/L): 530 ± 7 µg/g | L-Tryptophan concentration in G. pulex (2h, C2= 0.3 mg/L): 142 ± 7 µg/g | L-Tyrosine concentration in G. pulex (2h, C2= 0.3 mg/L): 216 ± 5 µg/g | L-Valine concentration in G. pulex (2h, C2= 0.3 mg/L): 268 ± 1 µg/g | L-aspartic acid concentration in G. pulex (2h, C2= 0.3 mg/L): 60.5 ± 3 µg/g | NADH concentration in G. pulex (2h, C2= 0.3 mg/L): 9.3 ± 0.2 µg/g | Taurine concentration in G. pulex (2h, C2= 0.3 mg/L): 7645 ± 212 µg/g | Thymidine concentration in G. pulex (2h, C2= 0.3 mg/L): 639 ± 140 µg/g | Trehalose concentration in G. pulex (2h, C2= 0.3 mg/L): 272 ± 10 µg/g | Uridine concentration in G. pulex (2h, C2= 0.3 mg/L): 506 ± 66 µg/g | (-)-Riboflavin concentration in G. pulex (6h, C1= 0.1 mg/L): 3.4 ± 3 µg/g | ADP concentration in G. pulex (6h, C1= 0.1 mg/L): 18.6 ± 3 µg/g | Cytidine concentration in G. pulex (6h, C1= 0.1 mg/L): 66 ± 21 µg/g | Hypoxanthine concentration in G. pulex (6h, C1= 0.1 mg/L): 154 ± 27 µg/g | Inosine concentration in G. pulex (6h, C1= 0.1 mg/L): 18116 ± 26 µg/g | L-2-amino-n-butyric concentration in G. pulex (6h, C1= 0.1 mg/L): 21.1 ± 4 µg/g | L-(-)-Proline concentration in G. pulex (6h, C1= 0.1 mg/L): 462 ± 5 µg/g | L-Alanine concentration in G. pulex (6h, C1= 0.1 mg/L): 1119 ± 48 µg/g | L-Citrulline concentration in G. pulex (6h, C1= 0.1 mg/L): 9.0 ± 0.9 µg/g | L-Isoleucine concentration in G. pulex (6h, C1= 0.1 mg/L): 2685 ± 88 µg/g | L-Leucine concentration in G. pulex (6h, C1= 0.1 mg/L): 459 ± 4 µg/g | L-Methionine concentration in G. pulex (6h, C1= 0.1 mg/L): 5.0 ± 0.5 µg/g | L-Phenylalanine concentration in G. pulex (6h, C1= 0.1 mg/L): 417 ± 5 µg/g | L-Serine concentration in G. pulex (6h, C1= 0.1 mg/L): 179 ± 13 µg/g | L-Threonine concentration in G. pulex (6h, C1= 0.1 mg/L): 787 ± 22 µg/g | L-Tryptophan concentration in G. pulex (6h, C1= 0.1 mg/L): 97 ± 16 µg/g | L-Tyrosine concentration in G. pulex (6h, C1= 0.1 mg/L): 301 ± 1 µg/g | L-Valine concentration in G. pulex (6h, C1= 0.1 mg/L): 601 ± 9 µg/g | L-aspartic acid concentration in G. pulex (6h, C1= 0.1 mg/L): 43.2 ± 2 µg/g | NADH concentration in G. pulex (6h, C1= 0.1 mg/L): 7.7 ± 1 µg/g | Taurine concentration in G. pulex (6h, C1= 0.1 mg/L): 10516 ± 434 µg/g | Thymidine concentration in G. pulex (6h, C1= 0.1 mg/L): 3697 ± 180 µg/g | Trehalose concentration in G. pulex (6h, C1= 0.1 mg/L): 259 ± 8 µg/g | Uridine concentration in G. pulex (6h, C1= 0.1 mg/L): 723 ± 21 µg/g
